Results: ChEMBL document CHEMBL1201862, “PubChem BioAssay data set” (2004)
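Five concentrations, 48 hours, 96-well plates. At the GI50, growth is halved.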 Activity calls are given as the source filed them. No stated cut-off is given here; in the data, active = GI50 up to about 1.1 µM and inactive = higher.

Key:
Experiment in all cases: NCI tumour cell line growth inhibition, 48 h
[1] = test system: 786-0
[2] = test system: A498
[3] = test system: A549
[4] = test system: ACHN
[5] = test system: BT-549
[6] = test system: CAKI-1
[7] = test system: CCRF-CEM
[8] = test system: COLO 205
[9] = test system: DU-145
[10] = test system: EKVX
[11] = test system: HCC 2998
[12] = test system: HCT-116
[13] = test system: HCT-15
[14] = test system: HOP-62
[15] = test system: HOP-92
[16] = test system: HT-29
[17] = test system: Hs-578T
[18] = test system: IGROV-1
[19] = test system: K562
[20] = test system: KM12
[21] = test system: LOX IMVI
[22] = test system: M14
[23] = test system: MCF7
[24] = test system: MDA-MB-231
[25] = test system: MDA-MB-435
[26] = test system: MDA-N
[27] = test system: MOLT-4
[28] = test system: Malme-3M
[29] = test system: NCI-H226
[30] = test system: NCI-H23
[31] = test system: NCI-H460
[32] = test system: NCI-H522
[33] = test system: NCI/ADR-RES
[34] = test system: OVCAR-3
[35] = test system: OVCAR-4
[36] = test system: OVCAR-5
[37] = test system: OVCAR-8
[38] = test system: PC-3
[39] = test system: RPMI-8226
[40] = test system: RXF 393
[41] = test system: SF-268
[42] = test system: SF-295
[43] = test system: SF-539
[44] = test system: SK-MEL-28
[45] = test system: SK-MEL-2
[46] = test system: SK-MEL-5
[47] = test system: SK-OV-3
[48] = test system: SN12C
[49] = test system: SNB-19
[50] = test system: SNB-75
[51] = test system: SR
[52] = test system: SW-620
[53] = test system: T47D
[54] = test system: TK-10
[55] = test system: U-251
[56] = test system: UACC-257
[57] = test system: UACC-62
[58] = test system: UO-31
[59] = test system: HL-60

Measured: GI50

Cc1nc2c(=O)n(C)c(=O)nc-2n(CCO)c1C
inactive: [1] > 100 µM | [2] > 100 µM | [3] > 100 µM | [4] > 100 µM | [5] > 100 µM | [6] > 100 µM | [7] > 100 µM | [8] > 100 µM | [9] > 100 µM | [10] > 100 µM | [11] > 100 µM | [12] > 100 µM | [14] > 100 µM | [15] > 100 µM | [16] > 100 µM | [17] > 100 µM | [18] > 100 µM | [19] > 100 µM | [20] > 100 µM | [21] > 100 µM | [22] > 100 µM | [23] > 100 µM | [24] > 100 µM | [25] > 100 µM | [26] > 100 µM | [27] > 100 µM | [28] > 100 µM | [29] > 100 µM | [30] > 100 µM | [31] > 100 µM | [32] > 100 µM | [33] > 100 µM | [34] > 100 µM | [35] > 100 µM | [36] > 100 µM | [37] > 100 µM | [38] > 100 µM | [39] > 100 µM | [40] > 100 µM | [41] > 100 µM | [42] > 100 µM | [43] > 100 µM | [44] > 100 µM | [45] > 100 µM | [46] > 100 µM | [47] > 100 µM | [48] > 100 µM | [49] > 100 µM | [50] > 100 µM | [51] > 100 µM | [52] > 100 µM | [53] > 100 µM | [54] > 100 µM | [55] > 100 µM | [56] > 100 µM | [57] > 100 µM | [58] > 100 µM
> 100 µM: [13]

CCOC(=O)c1c(N2CCOCC2)[nH]c(=O)c(C(c2ccc(Cl)c([N+](=O)[O-])c2)c2c(O)c(C(=O)OCC)c(N3CCOCC3)[nH]c2=O)c1O
inactive: [1] 28.1 µM | [2] > 100 µM | [3] > 100 µM | [4] 55.1 µM | [5] 24.4 µM | [6] 82.6 µM | [7] 4.76 µM | [8] > 100 µM | [9] 22.9 µM | [10] > 100 µM | [11] > 100 µM | [12] 20.3 µM | [14] 34.9 µM | [15] 23.9 µM | [16] 20.9 µM | [17] > 100 µM | [19] 30.3 µM | [20] > 100 µM | [21] 19.5 µM | [22] 20.7 µM | [23] 22 µM | [24] 15.2 µM | [25] 30.6 µM | [26] 26.1 µM | [27] 25.2 µM | [28] 41.4 µM | [29] > 100 µM | [30] 25.8 µM | [31] > 100 µM | [32] 28 µM | [33] 39 µM | [34] 17.2 µM | [35] 42.8 µM | [36] > 100 µM | [37] 18.4 µM | [38] 14.2 µM | [39] 26.7 µM | [40] > 100 µM | [41] 44.2 µM | [42] > 100 µM | [43] 26.5 µM | [44] 42.6 µM | [46] 24.3 µM | [47] > 100 µM | [48] 20.5 µM | [49] 26.5 µM | [50] 48.1 µM | [51] 36.1 µM | [52] 23.4 µM | [53] 19.7 µM | [54] 39.9 µM | [55] 19.6 µM | [56] 70 µM | [57] 40.1 µM | [58] 34 µM
> 100 µM: [13]

COc1cccc(-c2cc(O)c3c(C)ccnc3n2)c1
active: [1] 0.0449 µM | [2] 0.0344 µM | [3] 0.0518 µM | [4] 0.0483 µM | [7] 0.029 µM | [8] 0.0199 µM | [9] 0.0471 µM | [10] 0.225 µM | [11] 0.0352 µM | [12] 0.0392 µM | [59] < 0.0114 µM | [14] 0.0463 µM | [16] 0.0233 µM | [17] 0.0222 µM | [18] 0.0493 µM | [19] < 0.0113 µM | [20] 0.0257 µM | [21] 0.0625 µM | [22] 0.0239 µM | [23] 0.0741 µM | [24] 0.279 µM | [25] < 0.01 µM | [26] < 0.01 µM | [27] 0.0407 µM | [28] < 0.01 µM | [29] 0.0272 µM | [30] 0.0625 µM | [31] 0.0395 µM | [32] 0.0275 µM | [33] 0.0224 µM | [34] 0.0186 µM | [36] 0.0748 µM | [37] 0.0646 µM | [38] 0.0223 µM | [39] 0.0327 µM | [40] 0.0284 µM | [41] 0.0439 µM | [42] 0.029 µM | [43] 0.0272 µM | [45] 0.0695 µM | [46] 0.0241 µM | [47] 0.0365 µM | [48] 0.0655 µM | [49] 0.031 µM | [50] 0.0143 µM | [51] < 0.01 µM | [52] < 0.0177 µM | [55] 0.036 µM | [57] 0.0267 µM | [58] 0.0703 µM
0.0486 µM: [13]
inactive: [5] 21.2 µM | [35] 18 µM | [53] 49 µM | [54] > 100 µM
